Data taken from patent publication US10654816B2, “Compounds and compositions for treating conditions associated with NLRP activity” (NOVARTIS INFLAMMASOME RESEARCH, INC., priority 2017, dated 2020).

Each compound was assayed on IL-1β production in PMA-differentiated THP-1 cells (assay: IL-1β production in PMA-differentiated THP-1 cells stimulated with gramicidin (hTHP-1 assay, HTRF readout; Procedures 1-3)). Details: Homo sapiens, THP-1, hTHP-1 assay containing 2% fetal bovine serum; average; class symbols; read-out: hTHP-1 IC50 (Average IC50 of compounds in hTHP-1 assay).
Type: cell-based, human
Description: The Following Protocol is Suitable for Testing the Activity of the Compounds Disclosed Herein. Procedure 1: IL-1B Production in PMA-Differentiated THP-1 Cells Stimulated with Gramicidin.
THP-1 cells were purchased from the American Type Culture Collection and sub-cultured according to instructions from the supplier. Cells were cultured in complete RPMI 1640 (containing 10% heat inactivated FBS, penicillin (100 units/ml) and streptomycin (100 μg/ml)), and maintained in log phase prior to experimental setup. Prior to the experiment, compounds were dissolved in dimethyl sulfoxide (DMSO) to generate a 30 mM stock. The compound stock was first pre-diluted in DMSO to 3, 0.34, 0.042 and 0.0083 mM intermediate concentrations and subsequently spotted using Echo550 liquid handler into an empty 384-well assay plate to achieve desired final concentration (e.g. 100, 33, 11, 3.7, 1.2, 0.41, 0.14, 0.046, 0.015, 0.0051, 0.0017 μM). DMSO was backfilled in the plate to achieve a final DMSO assay concentration of 0.37%. The plate was then sealed and stored at room temperature until required.
THP-1 cells were treated with PMA (Phorbol 12-myristate 13-acetate) (20 ng/ml) for 16-18 hours. On the day of the experiment the media was removed and adherent cells were detached with trypsin for 5 minutes. Cells were then harvested, washed with complete RPMI 1640, spun down, and resuspended in RPMI 1640 (containing 2% heat inactivated FBS, penicillin (100 units/ml) and streptomycin (100 μg/ml). The cells were plated in the 384-well assay plate containing the spotted compounds at a density of 50,000 cells/well (final assay volume 50 μl). Cells were incubated with compounds for 1 hour and then stimulated with gramicidin (5 μM) (Enzo) for 2 hours. Plates were then centrifuged at 340 g for 5 min. Cell free supernatant (40 μL) was collected using a 96-channel PlateMaster (Gilson) and the production of IL-1β was evaluated by HTRF (cisbio). The plates were incubated for 18 h at 4° C. and read using the preset HTRF program (donor emission at 620 nm, acceptor emission at 668 nm) of the SpectraMax i3x spectrophotometer (Molecular Devices, software SoftMax 6). A vehicle only control and a dose titration of CRID3 (100-0.0017 μM) were run concurrently with each experiment.
Procedure 2: IL-1β Production in PMA-Differentiated THP-1 Cells Stimulated with Gramicidin.
THP-1 cells were purchased from the American Type Culture Collection and sub-cultured according to instructions from the supplier. Prior to experiments, cells were cultured in complete RPMI 1640 (containing 10% heat inactivated FBS, penicillin (100 units/ml) and streptomycin (100 μg/ml)), and maintained in log phase prior to experimental setup. Prior to the experiment THP-1 were treated with PMA (Phorbol 12-myristate 13-acetate) (20 ng/ml) for 16-18 hours. Compounds were dissolved in dimethyl sulfoxide (DMSO) to generate a 30 mM stock.
On the day of the experiment the media was removed and adherent cells were detached with trypsin for 5 minutes. Cells were then harvested, washed with complete RPMI 1640, spun down, resuspended in RPMI 1640 (containing 2% heat inactivated FBS, penicillin (100 units/ml) and streptomycin (100 μg/ml). The cells were plated in a 384-well plate at a density of 50,000 cells/well (final assay volume 50 μl). Compounds were first dissolved in assay medium to obtain a 5× top concentration of 500 μM. 10 step dilutions (1:3) were then undertaken in assay medium containing 1.67% DMSO. 5× compound solutions were added to the culture medium to achieve desired final concentration (e.g. 100, 33, 11, 3.7, 1.2, 0.41, 0.14, 0.046, 0.015, 0.0051, 0.0017 μM). Final DMSO concentration was at 0.37%. Cells were incubated with compounds for 1 hour and then stimulated with gramicidin (5 μM) (Enzo) for 2 hours. Plates were then centrifuged at 340 g for 5 min. Cell free supernatant (40 μL) was collected using a 96-channel PlateMaster (Gilson) and the production of IL-1β was evaluated by HTRF (cisbio). […]

Row | SMILES | IC50 [µM]
1 | COC1CN(Cc2ccc(S(N)(=O)=NC(=O)Nc3c4c(cc5c3CCC5)CCC4)cc2)C1 (stereo not drawn) [Example 231] | 1 to 5
2 | CN(C)S(=O)(=NC(=O)Nc1c2c(cc3c1CCC3)CCC2)c1cc(C(C)(C)O)cs1 (single isomer, unassigned) [Example 357, (R) or (S)-N′-((1,2,3,5,6,7-hexahydro-s-indacen-4-yl)carbamoyl)-4-(2-hydroxypropan-2-yl)-N,N-dimethylthiophene-2-sulfonimidamide] | 5 to 30
3 | CC(C)c1cc(F)cc(C(C)C)c1NC(=O)N=S(N)(=O)c1cnc2c(cnn2C)c1 (stereo not drawn) [Example 430, 3-[amino({1-methyl-1H-pyrazolo[3,4-b]pyridin-5-yl})oxo-λ^6-sulfanylidene]-1-[4-fluoro-2,6-bis(propan-2-yl)phenyl]urea] | 5 to 30
4 | CN(C)S(=O)(=NC(=O)Nc1c2c(cc3c1CCC3)CCC2)c1cc(C(C)(C)O)cs1 (stereo not drawn) [Example 245] | 5 to 30
5 | CC(C)(O)c1nc(CO)c(S(N)(=O)=NC(=O)Nc2c3c(c(C#N)c4c2CCC4)CCC3)s1 (stereo not drawn) [Example 69, N′-((8-cyano-1,2,3,5,6,7-hexahydro-s-indacen-4-yl)carbamoyl)-4-(hydroxymethyl)-2-(2-hydroxypropan-2-yl)thiazole-5-sulfonimidamide] | 1 to 5
6 | CC(C)(C)OC(=O)NS(=O)(=NC(=O)Nc1c2c(cc3c1CCC3)CCC2)c1cnc(C(C)(C)O)s1 (stereo not drawn) [Example 7, Tert-butyl N-(1,2,3,5,6,7-hexahydro-s-indacen-4-ylcarbamoyl)-2-(2-hydroxypropan-2-yl)thiazole-5-sulfonimidoylcarbamate] | 0.2 to 1
7 | CC(C)(O)c1ncc(S(N)(=O)=NC(=O)Nc2c3c(c(OC(F)F)c4c2CCC4)CCC3)s1 (stereo not drawn) [Example 27, N′-(8-(difluoromethoxy)-1,2,3,5,6,7-hexahydro-s-indacen-4-ylcarbainoyl)-2-(2-hydroxypropan-2-yl)thiazole-5-sulfonimidamide] | 0.2 to 1
8 | CC(C)(O)c1cccc(S(N)(=O)=NC(=O)Nc2c3c(cc4c2CCC4)CCC3)c1 (stereo not drawn) [Example 46, N′-(1,2,3,5,6,7-hexahydro-s-indacen-4-ylcarbamoyl)-3-(2-hydroxypropan-2-yl)benzenesulfonimidamide] | 1 to 5
9 | COCCN(C)Cc1ccc(S(N)(=O)=NC(=O)Nc2c3c(cc4c2CCC4)CCC3)cc1 (single isomer, unassigned) [Example 390, (R) or (S)-N′-((1,2,3,5,6,7-hexahydro-s-indacen-4-yl)carbamoyl)-4-(((2-methoxyethyl)(meth-yl)amino)methyl)benzene-sulfonimidamide] | 1 to 5
10 | CC(C)c1ccc(C#N)c(C(C)C)c1NC(=O)N=S(N)(=O)c1ccc(C(C)(C)O)s1 (stereo not drawn) [Example 254, N′-((3-cyano-2,6-diisopropylphenyl)carbamoyl)-5-(2-hydroxypropan-2-yl)thiophene-2-sulfonimidamide] | 1 to 5
12 | Cc1cc(S(N)(=O)=NC(=O)Nc2c(C(C)C)cc(F)cc2C(C)C)c(C)o1 (stereo not drawn) [Example 217, N′-((4-fluoro-2,6-diisopropylphenyl)carbamoyl)-2,5-dimethylfuran-3-sulfonimidamide] | 5 to 30
13 | CN1CCc2cc(S(N)(=O)=NC(=O)Nc3c4c(cc5c3CCC5)CCC4)ccc2C1 (stereo not drawn) [Example 270, N′-((1,2,3,5,6,7-hexahydro-s-indacen-4-yl)carbamoyl)-2-methyl-1,2,3,4-tetrahydroisoquinoline-6-sulfonimidamide] | 1 to 5
14 | CC(C)c1cc(C#N)cc(C(C)C)c1NC(=O)N=S(N)(=O)c1sc(C(C)(C)O)cc1F (stereo not drawn) [Example 65, N′-((4-cyano-2,6-diisopropylphenyl)carbaoyl)-3-fluoro-5-(2-hydroxypropan-2-yl)thiophene-2-sulfonimidamide] | 0.04 to 0.2
15 | CC(C)c1cc(F)cc(C(C)C)c1NC(=O)N=S(N)(=O)c1ccc(C(C)(C)O)cc1 (stereo not drawn) [Example 11, N′-(4-fluoro-2,6-diisopropylphenylcarbamoyl)-4-(2-hydroxypropan-2-yl)benzenesulfonimidamide] | 5 to 30
16 | Cc1cc(C(C)(C)O)ccc1S(N)(=O)=NC(=O)Nc1c2c(cc3c1CCC3)CCC2 (stereo not drawn) [Example 19, N′-(1,2,3,5,6,7-hexahydro-s-indacen-4-ylcarbamoyl)-4-(2-hydroxypropan-2-yl)-2-methylbenzenesulfonimidamide] | 1 to 5
17 | CC(=O)N(C)Cc1cccc(S(N)(=O)=NC(=O)Nc2c3c(cc4c2CCC4)CCC3)c1 (single isomer, unassigned) [Example 368, (R) or (S)-N-(3-(N′-((1,2,3,5,6,7-hexahydro-s-indacen-4-yl)carbamoyl)sulfamid-imidoyl)benzyl)-N-methylacetamide] | 1 to 5
18 | CC(C)c1ccc(S(N)(=O)=NC(=O)Nc2c3c(cc4c2CCC4)CCC3)cn1 (stereo not drawn) [Example 288, N′-((1,2,3,5,6,7-hexahydro-s-indacen-4-yl)carbamoyl)-6-isopropylpyridine-3-sulfonimidamide] | 1 to 5
19 | NCc1ccc(S(N)(=O)=NC(=O)Nc2c3c(cc4c2CCC4)CCC3)cc1 (stereo not drawn) [Example 243, 4-(Aminomethyl)-N′-(1,2,3,5,6,7-hexahydro-s-indacen-4-ylcarbamoyl)benzenesulfonimidamide] | 1 to 5
20 | COC1CN(Cc2ccc(S(N)(=O)=NC(=O)Nc3c4c(cc5c3CCC5)CCC4)cc2)C1 (single isomer, unassigned) [Example 379, (R) or (S)-N′-((1,2,3,5,6,7-hexahydro-s-indacen-4-yl)carbamoyl)-4-((3-methoxyazetidin-1-yl)methyl)benzene-sulfonimidamide] | 1 to 5

Same assay, conditions: Homo sapiens, THP-1, hTHP-1 assay containing 2% fetal bovine serum; average; given as bound; read-out: hTHP-1 IC50 (Average IC50 of compounds in hTHP-1 assay)

Row | SMILES | IC50 [µM]
21 | CC(C)(O)c1ncc(S(N)(=O)=NC(=O)Nc2c3c(cc4c2C(O)CC4)CCC3)s1 (single isomer, unassigned) [Example 369, (S, R/S) or (R, R/S)-N′-((3-hydroxy-1,2,3,5,6,7-hexahydro-s-indacen-4-yl)carbamoyl)-2-(2-hydroxypropan-2-yl)thiazole-5-sulfonimidamide] | > 30
22 | CC(=O)N(C)Cc1ccc(S(N)(=O)=NC(=O)Nc2c3c(cc4c2CCC4)CCC3)cc1 (single isomer, unassigned) [Example 365, (S) or (R)-N-(4-(N′-((1,2,3,5,6,7-hexahydro-s-indacen-4-yl)carbamoyl)sulfamid-imidoyl)benzyl)-N-methylacetamide] | > 30
23 | CC(C)Cc1ccc(S(N)(=O)=NC(=O)Nc2c3c(cc4c2CCC4)CCC3)cc1 (stereo not drawn) [Example 277, N′-(1,2,3,5,6,7-hexahydro-s-indacen-4-ylcarbamoyl)-4-isobutylbenzenesulfonimidamide] | > 30

Same assay, conditions: Homo sapiens, THP-1, hTHP-1 assay containing 2% fetal bovine serum; average; numeric bound printed without unit; read-out: hTHP-1 IC50 (Average IC50 of compounds in hTHP-1 assay)

Row | SMILES | IC50 [µM]
24 | CC(C)(O)c1ccc(F)c(S(N)(=O)=NC(=O)Nc2c3c(c(F)c4c2CCC4)CCC3)c1 (single isomer, unassigned) [Example 169, (S)- or (R)-2-fluoro-N′-((8-fluoro-1,2,3,5,6,7-hexahydro-s-indacen-4-yl)carbamoyl)-5-(2-hydroxypropan-2-yl)benzenesulfonimidamide] | > 5.59
